Here are results for three compounds from patent US20110245537A1, “L-carnitine calcium fumarate, preparation method and application for the same” (Liaoning Konepnutra Co., Ltd, priority 2009, published 2011).

The conditions of series [1]: cited from earlier work.
Series [2] can be described thus: hygroscopicity: caking or sticking on exposure to air. To be noted: 25° C., relative humidity of 60±5%, 24 hours exposure to air. The series is classed as physicochemical. An excerpt: The obtained L-carnitine calcium fumarate is in uniform powder form with good fluidity, more than 98% of which is smaller than 40 mesh size. […] The product has a calcium content of 6.76% with good non-hygrosopicity.
The obtained L-carnitine calcium fumarate is in uniform powder form and has good fluidity, greater than 98% of which is smaller than 40 mesh in granular size. […] The product has a calcium content of 9.28%, with better non-hygrosopicity.

On to `C[N+](C)(C)C[C@H](O)CC(=O)[O-].O=C(O)C(O)C(O)C(=O)O` [L-carnitine tartrate, L-carnitine L-tartrate], for which, in series [1], the “relative humidity at which the salt will deliquesce” value is “over 60%”.

With “L-Carnitine Calcium Fumarate (1:2:1) [Example 2]”, the “caking or sticking phenomena (non-hygroscopicity)” value in series [2] was “no caking or sticking phenomena”.

“L-Carnitine Calcium Fumarate (2:2:1) [Example 1]”: the “caking or sticking phenomena (non-hygroscopicity)” value in series [2] was “no caking or sticking phenomena”.
